Experimental data as given in patent US20230134859A1, “METHOD FOR SCREENING FOR, METHOD FOR PRODUCING, AND METHOD FOR DESIGNING DRUG ACTIVE INGREDIENTS” (SKY PHARMA CO., LTD., priority 2020, published 2023).

Tests used:
Format in all cases: in vivo
pancreatic β cells = assay: Test Example 9: pancreatic β cells and insulin in transgenic zebrafish embryos; conditions: vs control; for production amount of insulin by β cells (immunostaining with anti-insulin antibody, average fluorescence intensity): 100 nM or 5 nM, 20 h after injection, n=10; for production amount of insulin by β cells (in situ hybridization, ins probe): 100 nM, 14 h after injection, n=100
Method: Transgenic zebrafish expressing pancreatic β-cell GFP
Transgenic zebrafish embryos expressing pancreatic β-cell GFP at 10 hours after fertilization were held with the dorsal side of the head up on a coffin, and a glass capillary was inserted from the dorsal side into a gap just below the midline neural tube at about 2 times the distance between the rostral end and the ear vesicles to the caudal side (pancreatic primordium). A nitrogen gas pressure (15 picosiemens) was applied for 15 to 45 milliseconds, and the test compound was injected. The concentration of the test compound was 100 nM/E3, and 0.025% (final concentration) phenol red was mixed as a tracer of the infusion solution. The injection was performed in pulses with a foot pedal and continued until phenol red was distributed in an elliptical shape with a major axis of 200 μm from the insertion point.
The test compound (100 nM) was injected on a coffin in transgenic zebrafish embryos expressing pancreatic β-cell GFP at 10 hours after fertilization. After injection, embryos were cultured in E3 at 28.5° C. for 14 hours. After chorions were removed with tweezers, the embryos were fixed with 4% paraformaldehyde/PBS at room temperature for 1 hour, and in situ hybridization was performed overnight at 65° C. in the presence of a DIG probe of insulin (ins) according to a conventional method. After washing, β cells were stained by an alkali phosphatase color reaction using an anti-DIG antibody. After staining, the embryos were washed with PBS, embedded in 75% glycerin/PBS and localized, and then microscopically photographed with incident light. The number of test individuals was unified with n=100 for each test compound (FIG. 23).
Transgenic zebrafish embryos expressing pancreatic β-cell GFP at 10 hours after fertilization were injected with the test compound (100 nM or 5 nM) on the coffin. After injection, embryos were cultured in E3 at 28.5° C. for 20 hours in the presence of 0.2 mM phenylthiourea (PTU). After chorions were removed with tweezers, the embryos were fixed with 4% paraformaldehyde/PBS at normal temperature for 1 hour, immunohistochemically reacted with an anti-insulin antibody according to a conventional method, and then reacted with an Alexa fluor 488 anti-mouse IgG secondary antibody. The reacted embryos were washed with PBS, embedded in 75% glycerin/PBS and localized, and then microscopically photographed with 488 nm excitation light (FIG. 24). The number of tested individuals was unified with n=10 for each compound. The insulin amount was quantified by measuring the average fluorescence intensity in a circle with a radius of 100 μm centered on the fluorescence point (FIG. 25).

Purkinje cells = assay: Test Example 6: increase in Purkinje cells of adult mouse after injection into E11.5 fetal ventricle; conditions: test compounds = Compounds 1 to 7; 100 μM injected into E11.5 fetal ventricle, counted in adult mice; vs control; N=10
Method: A solution prepared by dissolving 100 μM of the test compound in physiological saline was injected into E11.5 mouse fetal ventricle. Brains of adult mouse individuals were fixed, and slice sections of cerebellar Purkinje cell layers were immunostained with an anti-d-Calbindin antibody, which is a marker of cell bodies and neurites of Purkinje cells. After staining, the number of Purkinje cells was counted, and the average value thereof was calculated.
As a control experiment (control), a similar experiment was performed using physiological saline containing no test compound.
The number of samples is 10 for each of Compounds 1 to 7 and control (N=10).

[1] = test system: sox1α, sox2, sox3, and her6; assay: Test Example 1: quantitative PCR of neural stem cell markers in brains of treated zebrafish; conditions: brain of treated zebrafish individuals; ΔΔCt; vs control
Method: Moreover, the brains of the treated zebrafish individuals were dissected and washed with sterile distilled water, and then crushed by pipetting or 1 ml syringe suction discharge with 18 G to 24 G needles in 500 μl of Sepasol-RNA I Super G (Nacalai Tesque). A deproteinization operation was conducted once by equivalent phenol/chloroform treatment and once by chloroform treatment, and the supernatant was subjected to RNA purification using an RNA purification column (RNeasy Plus Mini Kit, Qiagen). The elute was reverse-transcribed using a mixed primer of random hexamer and oligo-dT (ReverTra Ace qPCR Kit, TOYOBO) at 37° C. for 15 minutes and 98° C. for 5 minutes, and quantitative PCR of expression levels of sox1α, sox2, sox3, and her6, which are markers of neural stem cells, was performed. Quantitative PCR was performed with SYBER Green Realtime PCR Master Mix (TOYOBO). For the PCR reaction, ABI PRISM 7700 or LightCycler from Roche Diagnostics K.K. was used. Quantification was performed in 3 wells per identical sample (n=3). The obtained data was comparatively quantified by a ΔΔCt method using a normalizer (β-actin, GAPDH, 18S, or the like). In order to confirm that the quantitative reaction was reliable, it was confirmed that the amplification product was in a band by agarose electrophoresis.

cardiomyocytes = assay: Test Example 8: enhancement of myocardium in zebrafish embryo (nkx2.5 in situ hybridization, blood cells pumped per heartbeat); conditions: test compounds = Compounds 1 to 7; 100 μM injected at heart primordium 10 h after fertilization; vs control; n=80
Method: Zebrafish embryos at 10 hours after fertilization were held with the dorsal side of the head up on a coffin (plastic plate with V-shaped grooves for holding), and a glass capillary was inserted into a midline between head and ear vesicles (heart primordium). Nitrogen gas pressure (15 picosiemens) was applied for 15 to 45 milliseconds and injected into the gap just below the neural tube. The test compound concentration was 100 μM/E3, and 0.025% (final concentration) phenol red was mixed as a tracer of the injection solution. The injection was performed in pulses with a foot pedal and continued until phenol red was distributed in an elliptical shape with a major axis of 200 μm from the insertion point. After injection, embryos were cultured at 28.5° C. for 14 hours in E3. After chorions were removed with tweezers, the embryos were fixed with 4% paraformaldehyde/PBS at normal temperature for 1 hour, and in situ hybridization was performed overnight at 65° C. in the presence of a DIG probe of nk×2.5 as a cardiac muscle marker according to a conventional method. After washing, cardiomyocytes were stained by an alkali phosphatase color reaction using an anti-DIG antibody. The stained embryos were washed with PBS, embedded in 75% glycerin/PBS and localized, and then microscopically photographed with incident light. The number of tested individuals was unified with n=80 for each compound.
In addition, the zebrafish embryos injected with the test compound by the above-described method were cultured at 28.5° C. until 48 hours after fertilization, embedded in 3% methyl cellulose/E3, and a moving image was photographed. The number of blood cells pumped in one heartbeat in time-lapse was counted n=15 and compared to Ringer injected individuals.

[2] = test system: mesencephalic neural stem cells; assay: Test Example 7: increase in neural stem cells of adult zebrafish by intracerebroventricular administration; conditions: test compounds = Compounds 1 to 7; 100 μM into ventricle of one-month-old fish, 1 week; E3 Ringer or lipofection; vs control
Method: Reporter gene transgenic line of zebrafish specifically expressing green fluorescent protein in mesencephalic neural stem cells
A solution (0.1% DMSO) in which the test compound (100 μM) was dissolved in E3 Ringer (zebrafish physiological saline) was prepared. Mesencephalic neural stem cells were microscopically injected into the ventricles of one-month-old adult fish individuals labeled with green fluorescent protein, and cultured at 28.5° C. for 1 week.
As a control experiment (control), only E3 Ringer (0.1% DMSO plus 0.025% phenol red) was administered into the ventricle in the same volume. […]
Specifically, the solid cultured for 7 days after injection was held in a 3% methylcellulose/E3 Ringer/0.02% tricaine solution on a slide glass, and then GFP was emitted with 488 nm excitation light and imaged by a CCD camera. In addition, the average fluorescence brightness of the green fluorescent protein in a rectangle with a width of 100 μm and a height of 50 μm with the rostral end up around the fluorescence expression part was measured with a brightness analysis software. […]
In order to inhibit synthesis of melanin pigment that interferes with observation with a fluorescence microscope, 0.2 mM phenylthiourea (PTU) had been added to the culture solution.

SMILES | production amount of insulin by β cells (immunostaining with anti-insulin antibody, average fluorescence intensity) (pancreatic β cells) | production amount of insulin by β cells (in situ hybridization, ins probe) (pancreatic β cells) | number of Purkinje cells in the cerebellar Purkinje cell layers (Purkinje cells) | expression levels of sox1α, sox2, sox3, and her6 (quantitative PCR) [1] | amount of cardiomyocytes (in situ hybridization, nkx2.5) (cardiomyocytes) | fluorescence indicating the presence of mesencephalic neural stem cells in the brain of adult zebrafish [2]
COc1cc(N2CCC(N(C)C)CC2)ccc1Nc1ncc(Cl)c(Nc2ccccc2P(C)(C)=O)n1 [Compound 6, 5-Chloro-2-N-{4-[4-(dimethylamino)piperidin-1-yl]-2-methoxyphenyl}-4-N-[2-(dimethylphosphoryl)phenyl]pyrimidine-2,4-diamine] | significantly increased as compared with the control individual | significantly increased as compared with the control individual |  |  |  | 
Cc1cccc(-c2n[nH]cc2-c2ccnc3ccccc23)n1 [Compound 2, 4-[3-(6-Methylpyridin-2-yl)-1H-pyrazol-4-yl]quinoline] | significantly increased as compared with the control individual | significantly increased as compared with the control individual | significantly higher than that of the control | significant increase in expression levels | increase in the amount of cardiomyocytes was observed | 
O=C(O)CCC(=O)Nc1ccc(Br)cn1 [Compound 5, 4-[(5-Bromopyridin-2-yl)amino]-4-oxobutyric acid] |  | significantly increased as compared with the control individual | significantly higher than that of the control |  | increase in the amount of cardiomyocytes was observed | strongly detected as compared with the control
